In patent US10479780B2, “Aminopyrazole derivatives” (Chugai Seiyaku Kabushiki Kaisha, priority 2015, dated 2019):

Experiments:
Type in all cases: biochemical
human Yes1 enzyme = target: T1, human Yes1 enzyme (Homo sapiens, UniProt P07947); assay: Yes1 enzyme inhibitory activity (time-resolved fluorometry, biotinylated peptide phosphorylation); settings: read-out: YES_IC50
T1 construct: made in house
Method in brief: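 Inhibition was expressed against a compound-free control to give IC50, using TR-FRET read-out (Eu-cryptate anti-pTyr antibody, streptavidin-XL665).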

human Lck enzyme = target: T2, human Lck enzyme (Homo sapiens, UniProt P06239); assay: Lck enzyme inhibitory activity (time-resolved fluorometry, biotinylated peptide phosphorylation); settings: read-out: LCK_IC50
T2 construct: purchased Carna Biosciences, Inc. 08-170
T2 sequence (P06239 whole entry): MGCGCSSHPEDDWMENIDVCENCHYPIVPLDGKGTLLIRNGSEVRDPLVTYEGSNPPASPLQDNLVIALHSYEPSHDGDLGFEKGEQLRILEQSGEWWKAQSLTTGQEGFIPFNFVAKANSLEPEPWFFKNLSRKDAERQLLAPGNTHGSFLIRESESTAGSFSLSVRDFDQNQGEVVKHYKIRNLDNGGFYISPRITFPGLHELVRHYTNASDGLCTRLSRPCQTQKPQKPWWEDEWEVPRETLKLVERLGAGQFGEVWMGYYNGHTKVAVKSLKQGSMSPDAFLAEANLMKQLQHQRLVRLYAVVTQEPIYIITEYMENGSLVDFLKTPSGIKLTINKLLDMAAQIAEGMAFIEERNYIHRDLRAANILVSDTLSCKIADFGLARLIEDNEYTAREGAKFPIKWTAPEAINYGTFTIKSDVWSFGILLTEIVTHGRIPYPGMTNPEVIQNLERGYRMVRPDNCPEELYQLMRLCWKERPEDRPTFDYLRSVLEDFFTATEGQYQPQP
Method in brief: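 Readout pairs a europium cryptate-labelled anti-phosphotyrosine antibody with XL665-streptavidin, measured by time-resolved fluorescence. IC50 derived from percent inhibition against untreated controls.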

human Src enzyme = target: T3, human Src enzyme (Homo sapiens, UniProt P12931); assay: Src enzyme inhibitory activity (time-resolved fluorometry, biotinylated peptide phosphorylation); settings: read-out: SRC_IC50
T3 construct: purchased Carna Biosciences, Inc. 08-173
T3 sequence (P12931 whole entry): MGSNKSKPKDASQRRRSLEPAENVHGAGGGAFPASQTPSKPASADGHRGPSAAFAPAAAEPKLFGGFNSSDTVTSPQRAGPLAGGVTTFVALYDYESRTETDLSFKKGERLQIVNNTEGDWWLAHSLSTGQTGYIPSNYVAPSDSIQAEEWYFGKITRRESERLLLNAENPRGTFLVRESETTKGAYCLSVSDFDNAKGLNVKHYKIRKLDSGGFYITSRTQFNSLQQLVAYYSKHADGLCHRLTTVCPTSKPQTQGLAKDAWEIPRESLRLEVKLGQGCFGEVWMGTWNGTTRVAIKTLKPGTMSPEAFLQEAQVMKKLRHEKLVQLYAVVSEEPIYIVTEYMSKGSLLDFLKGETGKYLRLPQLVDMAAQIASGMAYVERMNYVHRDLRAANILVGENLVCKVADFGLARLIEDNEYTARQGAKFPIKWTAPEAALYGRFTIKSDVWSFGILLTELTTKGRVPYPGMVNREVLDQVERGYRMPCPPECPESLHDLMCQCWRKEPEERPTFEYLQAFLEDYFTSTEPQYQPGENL
Method in brief: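 Compounds were tested for blocking tyrosine phosphorylation of a biotinylated peptide substrate by recombinant human Src. Phosphorylated product was quantified by time-resolved fluorometry using europium cryptate and XL665 conjugates, and IC50 was calculated against the compound-free control.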

T1 sequence (P07947 whole entry): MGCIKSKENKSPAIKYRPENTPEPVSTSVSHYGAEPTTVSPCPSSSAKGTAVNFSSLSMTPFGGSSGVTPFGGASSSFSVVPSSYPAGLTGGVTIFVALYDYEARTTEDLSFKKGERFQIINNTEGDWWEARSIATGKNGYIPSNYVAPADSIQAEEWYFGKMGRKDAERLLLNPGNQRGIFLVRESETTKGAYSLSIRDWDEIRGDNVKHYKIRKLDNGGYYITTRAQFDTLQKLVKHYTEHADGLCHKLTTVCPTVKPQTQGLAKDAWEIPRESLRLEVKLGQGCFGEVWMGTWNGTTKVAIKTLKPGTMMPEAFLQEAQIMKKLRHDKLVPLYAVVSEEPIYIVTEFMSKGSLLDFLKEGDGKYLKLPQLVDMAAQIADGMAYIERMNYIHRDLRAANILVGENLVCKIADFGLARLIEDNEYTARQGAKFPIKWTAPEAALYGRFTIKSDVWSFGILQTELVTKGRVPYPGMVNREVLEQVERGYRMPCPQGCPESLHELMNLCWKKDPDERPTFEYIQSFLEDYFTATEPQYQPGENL

`Cc1cc2cc(C(=O)c3cnn(-c4cnc(Oc5c(F)cccc5F)cc4C)c3N)[nH]c2cc1N1C(=O)NC2(CCN(Cc3ccccc3)CC2)C1=O` [Example 5-1-361, 3-[2-[5-amino-1-[6-(2,6-difluorophenoxy)-4-methylpyridin-3-yl]pyrazole-4-carbonyl]-5-methyl-1H-indol-6-yl]-8-benzyl-1,3,8-triazaspiro[4.5]decane-2,4-dione] showed an IC50 (human Yes1 enzyme) of 9.2 nM, an IC50 (human Lck enzyme) of 26 nM and an IC50 (human Src enzyme) of 170 nM.

`Cc1cc2cc(C(=O)c3cnn(-c4cnc(Oc5c(F)cccc5F)cc4C)c3N)[nH]c2cc1N1C(=O)NC2(CCN(C3COC3)C2)C1=O` (stereo not drawn) [Example 5-1-362, 3-[2-[5-amino-1-[6-(2,6-difluorophenoxy)-4-methylpyridin-3-yl]pyrazole-4-carbonyl]-5-methyl-1H-indol-6-yl]-7-(oxetan-3-yl)-1,3,7-triazaspiro[4.4]nonane-2,4-dione] gave an IC50 (human Yes1 enzyme) of 2 nM, an IC50 (human Lck enzyme) of 6.5 nM and an IC50 (human Src enzyme) of 29 nM.

With `Cc1cc2cc(C(=O)c3cnn(-c4cnc(Oc5c(F)cccc5F)cc4C)c3N)[nH]c2cc1N1C(=O)NC2(CCN(Cc3ccccc3)C2)C1=O` (stereo not drawn) [Example 5-1-363, 3-[2-[5-amino-1-[6-(2,6-difluorophenoxy)-4-methylpyridin-3-yl]pyrazole-4-carbonyl]-5-methyl-1H-indol-6-yl]-7-benzyl-1,3,7-triazaspiro[4.4]nonane-2,4-dione] the IC50 (human Yes1 enzyme) was 11 nM, the IC50 (human Lck enzyme) was 31 nM and the IC50 (human Src enzyme) was 260 nM.

`Cc1cc2cc(C(=O)c3cnn(-c4ccc(Oc5ccccc5F)cc4C)c3N)[nH]c2cc1N1C(=O)NC2(CCNCC2)C1=O` [Example 5-1-364, 3-(2-(5-amino-1-(4-(2-fluorophenoxy)-2-methylphenyl)-1H-pyrazole-4-carbonyl)-5-methyl-1H-indol-6-yl)-1,3,8-triazaspiro[4.5]decane-2,4-dione] showed an IC50 (human Yes1 enzyme) of 1.3 nM, an IC50 (human Lck enzyme) of 5.4 nM and an IC50 (human Src enzyme) of 18 nM.

Compound `Cc1cc2cc(C(=O)c3cnn(-c4ccc(Oc5ccccc5F)cc4C)c3N)[nH]c2cc1N1C(=O)NC2(CCNC2)C1=O` (stereo not drawn) [Example 5-1-365, 3-[2-[5-amino-1-[4-(2-fluorophenoxy)-2-methylphenyl]pyrazole-4-carbonyl]-5-methyl-1H-indol-6-yl]-1,3,7-triazaspiro[4.4]nonane-2,4-dione] has an IC50 (human Yes1 enzyme) of 1.5 nM, an IC50 (human Lck enzyme) of 5.7 nM and an IC50 (human Src enzyme) of 18 nM.

In the case of `Cc1cc2cc(C(=O)c3cnn(-c4cnc(Oc5c(F)cccc5F)cc4C)c3N)[nH]c2cc1N1C(=O)NC2(CC2)C1=O` [Example 5-1-366, 6-[2-[5-amino-1-[6-(2,6-difluorophenoxy)-4-methylpyridin-3-yl]pyrazole-4-carbonyl]-5-methyl-1H-indol-6-yl]-4,6-diazaspiro[2.4] heptane-5,7-dione], the IC50 (human Yes1 enzyme) is reported as 3.7 nM, the IC50 (human Lck enzyme) is reported as 9.9 nM and the IC50 (human Src enzyme) is reported as 39 nM.

Work on `Cc1cc2cc(C(=O)c3cnn(-c4cnc(Oc5c(F)cccc5F)cc4C)c3N)[nH]c2cc1N1C(=O)NC2(CCCC2)C1=O` [Example 5-1-367, 3-[2-[5-amino-1-[6-(2,6-difluorophenoxy)-4-methylpyridin-3-yl]pyrazole-4-carbonyl]-5-methyl-1H-indol-6-yl]-1,3-diazaspiro[4.4] nonane-2,4-dione] yielded an IC50 (human Yes1 enzyme) of 5.6 nM, an IC50 (human Lck enzyme) of 16 nM and an IC50 (human Src enzyme) of 77 nM.

With `Cc1cc(Oc2c(F)cccc2F)ncc1-n1ncc(C(=O)c2cc3cc(F)c(N4C(=O)NC5(CCOCC5)C4=O)cc3[nH]2)c1N` [Example 5-1-368, 3-[2-[5-amino-1-[6-(2,6-difluorophenoxy)-4-methylpyridin-3-yl]pyrazole-4-carbonyl]-5-fluoro-1H-indol-6-yl]-8-oxa-1,3-diazaspiro[4.5] decane-2,4-dione] the IC50 (human Yes1 enzyme) was 3.8 nM, the IC50 (human Lck enzyme) was 8.7 nM and the IC50 (human Src enzyme) was 62 nM.

`Cc1cc(Oc2c(F)cccc2F)ncc1-n1ncc(C(=O)c2cc3cc(F)c(N4C(=O)NC5(CCCCC5)C4=O)cc3[nH]2)c1N` [Example 5-1-369, 3-[2-[5-amino-1-[6-(2,6-difluorophenoxy)-4-methylpyridin-3-yl]pyrazole-4-carbonyl]-5-fluoro-1H-indol-6-yl]-1,3-diazaspiro[4.5]decane-2,4-dione] showed an IC50 (human Yes1 enzyme) of 22 nM, an IC50 (human Lck enzyme) of 79 nM and an IC50 (human Src enzyme) of 560 nM.

`Cc1cc(Oc2c(F)cccc2F)ncc1-n1ncc(C(=O)c2cc3cc(F)c(N4C(=O)NC(C)(C(F)(F)F)C4=O)cc3[nH]2)c1N` (stereo not drawn) [Example 5-1-370, 3-[2-[5-amino-1-[6-(2,6-difluorophenoxy)-4-methylpyridin-3-yl]pyrazole-4-carbonyl]-5-fluoro-1H-indol-6-yl]-5-methyl-5-(trifluoromethyl)imidazolidine-2,4-dione] showed an IC50 (human Yes1 enzyme) of 8.3 nM, an IC50 (human Lck enzyme) of 27 nM and an IC50 (human Src enzyme) of 150 nM.

With `Cc1cc2cc(C(=O)c3cnn(-c4ccc(Oc5ccccc5F)cc4C)c3N)[nH]c2cc1N1C(=O)NC2(CCC2)C1=O` [Example 5-1-371, 7-[2-[5-amino-1-[4-(2-fluorophenoxy)-2-methylphenyl]pyrazole-4-carbonyl]-5-methyl-1H-indol-6-yl]-5,7-diazaspiro[3.4]octane-6,8-dione] the IC50 (human Yes1 enzyme) was 2 nM, the IC50 (human Lck enzyme) was 9.8 nM and the IC50 (human Src enzyme) was 30 nM.

Work on `Cc1cc2cc(C(=O)c3cnn(-c4ccc(Oc5ccccc5F)cc4C)c3N)[nH]c2cc1N1C(=O)NC2(CC2)C1=O` [Example 5-1-372, 6-[2-[5-amino-1-[4-(2-fluorophenoxy)-2-methylphenyl]pyrazole-4-carbonyl]-5-methyl-1H-indol-6-yl]-4,6-diazaspiro[2.4]heptane-5,7-dione] yielded an IC50 (human Yes1 enzyme) of 1.3 nM, an IC50 (human Lck enzyme) of 6.1 nM and an IC50 (human Src enzyme) of 16 nM.

`Cc1cc2cc(C(=O)c3cnn(-c4ccc(Oc5ccccc5F)cc4C)c3N)[nH]c2cc1N1C(=O)NC2(CCCC2)C1=O` [Example 5-1-373, 3-[2-[5-amino-1-[4-(2-fluorophenoxy)-2-methylphenyl]pyrazole-4-carbonyl]-5-methyl-1H-indol-6-yl]-1,3-diazaspiro[4.4]nonane-2,4-dione] gave an IC50 (human Yes1 enzyme) of 3.1 nM, an IC50 (human Lck enzyme) of 14 nM and an IC50 (human Src enzyme) of 48 nM.

Compound `Cc1cc(Oc2ccccc2F)ccc1-n1ncc(C(=O)c2cc3cc(F)c(N4C(=O)NC5(CCC5)C4=O)cc3[nH]2)c1N` [Example 5-1-374, 7-[2-[5-amino-1-[4-(2-fluorophenoxy)-2-methylphenyl]pyrazole-4-carbonyl]-5-fluoro-1H-indol-6-yl]-5,7-diazaspiro[3.4]octane-6,8-dione] has an IC50 (human Yes1 enzyme) of 2.9 nM, an IC50 (human Lck enzyme) of 13 nM and an IC50 (human Src enzyme) of 36 nM.

For `Cc1cc(Oc2ccccc2F)ccc1-n1ncc(C(=O)c2cc3cc(F)c(N4C(=O)NC5(CC5)C4=O)cc3[nH]2)c1N` [Example 5-1-375, 6-[2-[5-amino-1-[4-(2-fluorophenoxy)-2-methylphenyl]pyrazole-4-carbonyl]-5-fluoro-1H-indol-6-yl]-4,6-diazaspiro[2.4]heptane-5,7-dione], the IC50 (human Yes1 enzyme) was 2 nM, the IC50 (human Lck enzyme) was 7.1 nM and the IC50 (human Src enzyme) was 24 nM.

Work on `Cc1cc(Oc2ccccc2F)ccc1-n1ncc(C(=O)c2cc3cc(F)c(N4C(=O)NC5(COC5)C4=O)cc3[nH]2)c1N` [Example 5-1-376, 7-[2-[5-amino-1-[4-(2-fluorophenoxy)-2-methylphenyl]pyrazole-4-carbonyl]-5-fluoro-1H-indol-6-yl]-2-oxa-5,7-diazaspiro[3.4] octane-6,8-dione] yielded an IC50 (human Yes1 enzyme) of 1.4 nM, an IC50 (human Lck enzyme) of 4 nM and an IC50 (human Src enzyme) of 14 nM.

For `Cc1cc(Oc2ccccc2F)ncc1-n1ncc(C(=O)c2cc3cc(OCC(F)F)c(N4C(=O)NC(C)(C)C4=O)cc3[nH]2)c1N` [Example 5-1-377, 3-[2-[5-amino-1-[6-(2-fluorophenoxy)-4-methylpyridin-3-yl]pyrazole-4-carbonyl]-5-(2,2-difluoroethoxy)-1H-indol-6-yl]-5,5-dimethylimidazolidine-2,4-dione], the IC50 (human Yes1 enzyme) was 2 nM, the IC50 (human Lck enzyme) was 7.4 nM and the IC50 (human Src enzyme) was 17 nM.

`Cc1cc(Oc2ccccc2F)ncc1-n1ncc(C(=O)c2cc3cc(F)c(NS(=O)(=O)C4CCOCC4)cc3[nH]2)c1N` [Example 5-1-378, N-[2-[5-amino-1-[6-(2-fluorophenoxy)-4-methylpyridin-3-yl]pyrazole-4-carbonyl]-5-fluoro-1H-indol-6-yl]oxane-4-sulfonamide] showed an IC50 (human Yes1 enzyme) of 2.8 nM, an IC50 (human Lck enzyme) of 37 nM and an IC50 (human Src enzyme) of 63 nM.

With `Cc1cc(Oc2ccccc2F)ncc1-n1ncc(C(=O)c2cc3cc(F)c(N4C(=O)NC(C)(C)C4=O)cc3[nH]2)c1N` [Example 5-1-379, 3-[2-[5-amino-1-[6-(2-fluorophenoxy)-4-methylpyridin-3-yl]pyrazole-4-carbonyl]-5-fluoro-1H-indol-6-yl]-5,5-dimethylimidazolidine-2,4-dione] the IC50 (human Yes1 enzyme) was 4.5 nM, the IC50 (human Lck enzyme) was 11 nM and the IC50 (human Src enzyme) was 61 nM.

In the case of `Cc1cc(Oc2c(F)cccc2F)ncc1-n1ncc(C(=O)c2cc3cc(OC(F)F)c(NS(=O)(=O)C4CCOCC4)cc3[nH]2)c1N` [Example 5-1-380, N-[2-[5-amino-1-[6-(2,6-difluorophenoxy)-4-methylpyridin-3-yl]pyrazole-4-carbonyl]-5-(difluoromethoxy)-1H-indol-6-yl]oxane-4-sulfonamide], the IC50 (human Yes1 enzyme) is reported as 6.3 nM, the IC50 (human Lck enzyme) is reported as 110 nM and the IC50 (human Src enzyme) is reported as 95 nM.

In the case of `Cc1cc(Oc2c(F)cccc2F)ncc1-n1ncc(C(=O)c2cc3cc(F)c(NS(=O)(=O)C4CCOCC4)cc3[nH]2)c1N` [Example 5-1-381, N-[2-[5-amino-1-[6-(2,6-difluorophenoxy)-4-methylpyridin-3-yl]pyrazole-4-carbonyl]-5-fluoro-1H-indol-6-yl]oxane-4-sulfonamide], the IC50 (human Yes1 enzyme) is reported as 3.3 nM, the IC50 (human Lck enzyme) is reported as 43 nM and the IC50 (human Src enzyme) is reported as 56 nM.

`Cc1cc(Oc2c(F)cccc2F)ncc1-n1ncc(C(=O)c2cc3cc(OCC(F)F)c(NS(=O)(=O)c4cccc(C#N)c4)cc3[nH]2)c1N` [Example 5-1-382, N-[2-[5-amino-1-[6-(2,6-difluorophenoxy)-4-methylpyridin-3-yl]pyrazole-4-carbonyl]-5-(2,2-difluoroethoxy)-1H-indol-6-yl]-3-cyanobenzenesulfonamide] was tested, and the IC50 (human Yes1 enzyme) was 2.5 nM, the IC50 (human Lck enzyme) was 31 nM and the IC50 (human Src enzyme) was 260 nM.
